Measured values as given in patent US20020137929A1, “1 - (3-heterocyclylphenyl) isothiourea, -isourea, -guanidine and -amidine herbicidal agents” (Intellectual Property Department, BASF Aktiengesellschaft, priority 1998, published 2002).

Assays:
ECHCG (Barnyardgrass) = assay: Preemergence herbicidal evaluation; assay type: in vivo, Echinochloa crus-galli; conditions: rated 4-5 weeks after treatment
Outline: (§1)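 Seeds were mixed with potting soil and planted on about one inch of soil, then sprayed with test compound in aqueous acetone at about 0.0156 to 0.500 kg per hectare. Plants grew under standard greenhouse care and were visually rated 0-9 against untreated controls 4-5 weeks post-treatment.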

AMBEL (Ragweed, Common) [1] = assay: Postemergence herbicidal evaluation; assay type: in vivo, Ambrosia artemisifolia
Outline: (§2)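 Seedlings grown about two weeks were sprayed at 40 psi with compound dispersed in 50/50 acetone/water plus 0.5% TWEEN 20, at about 0.0156 to 0.500 kg/ha. Plants were kept in the greenhouse and scored 4–5 weeks later on a 0–9 visual scale against untreated controls.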

ABUTH (Velvetleaf) = assay: Preemergence herbicidal evaluation; assay type: in vivo, Abutilon theophrasti; conditions: rated 4-5 weeks after treatment
Outline: as §1

AMBEL (Ragweed, Common) [2] = assay: Preemergence herbicidal evaluation; assay type: in vivo, Ambrosia artemisifolia; conditions: rated 4-5 weeks after treatment
Outline: as §1

CASOB (Sicklepod) = assay: Preemergence herbicidal evaluation; assay type: in vivo, Cassia obtusifolia; conditions: rated 4-5 weeks after treatment
Outline: as §1

[3] = test system: GLXMAW (Soybean, Williams); assay: Postemergence herbicidal evaluation; assay type: in vivo, Glycine max, (L.) Merr. cv Williams
Outline: as §2

CYPSE (Flatsedge) = assay: Preemergence weed control under flooded paddy conditions; assay type: in vivo, Cyperus serotinus; conditions: rated 3-4 weeks after treatment
Outline: (§3)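 Ratings on a 0-9 visual scale cover stand, vigor, malformation, size, chlorosis and overall appearance relative to a control, taken three to four weeks post-treatment. Application was into flood water over freshly sown silt loam at roughly 0.0313 to 0.500 kg/ha.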

[4] = test system: SAGPY (Arrowhead (Pygmaea)); assay: as above; assay type: in vivo, Sagittaria pygmaea; conditions: rated 3-4 weeks after treatment
Outline: as §3

ZEAMX (Corn, Field) = assay: Postemergence herbicidal evaluation; assay type: in vivo, Zea mays
Outline: as §2

[5] = test system: GLXMAW (Soybean, Williams); assay: Preemergence herbicidal evaluation; assay type: in vivo, Glycine max, (L.) Merr. cv Williams; conditions: rated 4-5 weeks after treatment
Outline: as §1

[6] = test system: IPOHE (Morningglory, Ivyleaf); assay: Postemergence herbicidal evaluation; assay type: in vivo, Ipomoea hederacea
Outline: as §2

SETVI (Foxtail, Green) = assay: Preemergence herbicidal evaluation; assay type: in vivo, Setaria viridis; conditions: rated 4-5 weeks after treatment
Outline: as §1

GALAP (Galium) = assay: Preemergence herbicidal evaluation; assay type: in vivo, Galium aparine; conditions: rated 4-5 weeks after treatment
Outline: as §1

[7] = test system: ECHORC (Watergrass (Calif.)); assay: Postemergence weed control under flooded paddy conditions; assay type: in vivo, Echinochloa oryzoides; conditions: postemergence weeds, 3-4 weeks after treatment
Outline: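 With weeds 3 to 5 cm tall and rice at the 1.5 to 2.5 leaf stage, containers were flooded and water held 1.5 to 3 cm above soil. Compounds in 50/50 v/v aqueous/acetone went into the flood water at about 0.0313 to 0.500 kg/ha a.i. Effects were visually rated 0–9 against controls after three to four weeks in the greenhouse.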

C[C@@H](C(=O)O)N1C(=O)CS/C1=N/c1cc(-n2c(=O)cc(C(F)(F)F)n(C)c2=O)c(F)cc1Cl [Compound 51, 2-{{2-Chloro-5-[3,6-dihydro-3-methyl-2,6-dioxo-4-(trifluoromethyl)-1(2H)-pyrimidinyl]-4-fluoro-phenyl}imino}-α-methyl-4-oxo-3-thiazolidineacetic acid, L-]
5.0: Preemergence herbicidal rating GALAP (GALAP (Galium); rate 0.0625 kg/ha)
0.0: Preemergence herbicidal rating ECHCG (ECHCG (Barnyardgrass); rate 0.0156 kg/ha) | Preemergence herbicidal rating ECHCG (ECHCG (Barnyardgrass); rate 0.0313 kg/ha) | Preemergence herbicidal rating AMBEL (AMBEL (Ragweed, Common) [2]; rate 0.0156 kg/ha) | Preemergence herbicidal rating AMBEL (AMBEL (Ragweed, Common) [2]; rate 0.0313 kg/ha) | Preemergence herbicidal rating CASOB (CASOB (Sicklepod); rate 0.0156 kg/ha) | Preemergence herbicidal rating CASOB (CASOB (Sicklepod); rate 0.0313 kg/ha) | Preemergence herbicidal rating CASOB (CASOB (Sicklepod); rate 0.0625 kg/ha) | Herbicidal rating CYPSE (CYPSE (Flatsedge); 0.0625 kg/ha) | Herbicidal rating CYPSE (CYPSE (Flatsedge); 0.1250 kg/ha) | Herbicidal rating CYPSE (CYPSE (Flatsedge); 0.2500 kg/ha) | Herbicidal rating SAGPY ([4]; 0.0625 kg/ha) | Herbicidal rating SAGPY ([4]; 0.1250 kg/ha) | Herbicidal rating SAGPY ([4]; 0.2500 kg/ha) | Preemergence herbicidal rating GLXMAW ([5]; rate 0.0156 kg/ha) | Preemergence herbicidal rating GLXMAW ([5]; rate 0.0313 kg/ha) | Preemergence herbicidal rating SETVI (SETVI (Foxtail, Green); rate 0.0313 kg/ha) | Preemergence herbicidal rating GALAP (GALAP (Galium); rate 0.0156 kg/ha) | Preemergence herbicidal rating GALAP (GALAP (Galium); rate 0.0313 kg/ha) | Herbicidal rating ECHORC ([7]; rate 0.0625 kg/ha) | Herbicidal rating ECHORC ([7]; rate 0.1250 kg/ha) | Herbicidal rating ECHORC ([7]; rate 0.2500 kg/ha)
1.0: Preemergence herbicidal rating ECHCG (ECHCG (Barnyardgrass); rate 0.0625 kg/ha) | Preemergence herbicidal rating ECHCG (ECHCG (Barnyardgrass); rate 0.1250 kg/ha) | Preemergence herbicidal rating ECHCG (ECHCG (Barnyardgrass); rate 0.2500 kg/ha) | Preemergence herbicidal rating CASOB (CASOB (Sicklepod); rate 0.1250 kg/ha) | Preemergence herbicidal rating CASOB (CASOB (Sicklepod); rate 0.2500 kg/ha) | Preemergence herbicidal rating GLXMAW ([5]; rate 0.0625 kg/ha) | Preemergence herbicidal rating GLXMAW ([5]; rate 0.1250 kg/ha) | Preemergence herbicidal rating SETVI (SETVI (Foxtail, Green); rate 0.0156 kg/ha)
7.5: Postemergence herbicidal rating ZEAMX (ZEAMX (Corn, Field); Rate 0.0315 kg/ha) | Postemergence herbicidal rating ZEAMX (ZEAMX (Corn, Field); Rate 0.0630 kg/ha)
9.0: Postemergence herbicidal rating AMBEL (AMBEL (Ragweed, Common) [1]; Rate 0.0630 kg/ha) | Preemergence herbicidal rating ABUTH (ABUTH (Velvetleaf); rate 0.0156 kg/ha) | Preemergence herbicidal rating ABUTH (ABUTH (Velvetleaf); rate 0.0313 kg/ha) | Preemergence herbicidal rating ABUTH (ABUTH (Velvetleaf); rate 0.0625 kg/ha) | Preemergence herbicidal rating ABUTH (ABUTH (Velvetleaf); rate 0.2500 kg/ha) | Preemergence herbicidal rating AMBEL (AMBEL (Ragweed, Common) [2]; rate 0.1250 kg/ha) | Preemergence herbicidal rating AMBEL (AMBEL (Ragweed, Common) [2]; rate 0.2500 kg/ha) | Postemergence herbicidal rating IPOHE ([6]; Rate 0.0158 kg/ha) | Postemergence herbicidal rating IPOHE ([6]; Rate 0.0315 kg/ha) | Postemergence herbicidal rating IPOHE ([6]; Rate 0.0630 kg/ha) | Preemergence herbicidal rating SETVI (SETVI (Foxtail, Green); rate 0.2500 kg/ha) | Preemergence herbicidal rating GALAP (GALAP (Galium); rate 0.2500 kg/ha)
6.0: Postemergence herbicidal rating AMBEL (AMBEL (Ragweed, Common) [1]; Rate 0.0158 kg/ha) | Postemergence herbicidal rating AMBEL (AMBEL (Ragweed, Common) [1]; Rate 0.0315 kg/ha) | Postemergence herbicidal rating GLXMAW ([3]; Rate 0.0158 kg/ha) | Preemergence herbicidal rating SETVI (SETVI (Foxtail, Green); rate 0.1250 kg/ha)
4.0: Preemergence herbicidal rating AMBEL (AMBEL (Ragweed, Common) [2]; rate 0.0625 kg/ha)
3.0: Preemergence herbicidal rating SETVI (SETVI (Foxtail, Green); rate 0.0625 kg/ha)
7.0: Preemergence herbicidal rating ABUTH (ABUTH (Velvetleaf); rate 0.1250 kg/ha) | Postemergence herbicidal rating ZEAMX (ZEAMX (Corn, Field); Rate 0.0158 kg/ha) | Preemergence herbicidal rating GLXMAW ([5]; rate 0.2500 kg/ha) | Preemergence herbicidal rating GALAP (GALAP (Galium); rate 0.1250 kg/ha)
8.0: Postemergence herbicidal rating GLXMAW ([3]; Rate 0.0315 kg/ha) | Postemergence herbicidal rating GLXMAW ([3]; Rate 0.0630 kg/ha)
